Measured values taken from US6610689B2, “HIV protease inhibitors based on amino acid derivatives” (priority 2001, dated 2003).
pKi: −log10 of the molar value. Where two headings read alike, the source gives them in different places.

Target: T1, HIV protease (Human immunodeficiency virus type 1 group M subtype B, UniProt P04585)
T1 construct: A third viral enzyme known as protease then cleaves the polyproteins
Assay: Enzymatic Assay for Determining the Inhibition Constant (Ki) of Synthetic Compounds Targeting the HIV Protease (fluorometric FRET assay)
Format: biochemical
Excerpt: Enzymatic Assay for Determining the Inhibition Constant (Ki) of Synthetic Compounds Targeting the HIV Protease
This is a fluorometric assay based on the cleavage by protease of a substrate carrying a donor group (EDANS) and an acceptor group (DABCYL) on each side of the cleavage site, interacting together through fluorescence resonance energy transfer (FRET) as described by Matayoshi et al. (Science 247:[…], 1990).
After calculation of Vo and Vi, the inhibition constant (Ki) of the compound is determined using the equation of Henderson: [formula]
where Vo=the enzyme's initial velocity
Vi=the enzyme velocity in the presence of the inhibitory compound,
[I]=inhlibitor concentration, [S]=substrate concentration,
Km=Michaelis-Menten constant and Kiapp=apparent Ki
Graphs are traced and the Ki determined using GraphPad Prism software v. 3.0.

[1] = Table 1, compounds of formula I, read-out: Ki (anti-protease activity)

Compound | pKi | other results
Cc1ccc(S(=O)(=O)N(CC(C)C)[C@H](CO)CCCCNC(=O)[C@H](Cc2c[nH]c3ccccc23)NC(=O)N2CCOCC2)cc1 [Example 171, (2S,2′S) 2-N-Isobutyl-2-N-(4-methylbenzenesulfonyl)-6-N-[N′α-(4-morpholinecarbonyl)-S-tryptophanyl]-2,6-diaminohexanol] | 8.10 | –
Cc1ccc(S(=O)(=O)N(CC(C)C)[C@H](CO)CCCCNC(=O)CN(CCc2ccccc2)c2ccccc2)cc1 [Example 160, (2S) 2-N-Isobutyl-2-N-(4-methylbenzenesulfonyl)-6-N-(N′α-phenethyl-N′α-phenylglycyl]-2,6-diaminohexanol] | – | pKi [1]: 7.28
COC(=O)[C@H](CCCCNC(=O)[C@H](Cc1ccccc1)NC(=O)c1ccccc1)N(CC(C)C)S(=O)(=O)c1ccc(C)cc1 [Example 70, Nα-Isobutyl-Nα-(4-methylbenzenesulfonyl)-Nε-(N′α-benzoyl-L-phenylalanyl)-L-lysine Methyl Ester] | < 6.52 | –
Cc1ccc(S(=O)(=O)N(CC(C)C)[C@@H](CCCCNC(=O)[C@H](CC(N)=O)NC(=O)c2ccccc2)C(=O)O)cc1 [Example 63, Nα-Isobutyl-Nα-(4-methylbenzenesulfonyl)-Nε-(N′α-benzoyl-L-asparagyl)-L-lysine] | 6.71 | –
Cc1ccc(S(=O)(=O)N[C@@H](Cc2ccc([N+](=O)[O-])cc2)C(=O)NCCCC[C@@H](CO)N(CC(C)C)S(=O)(=O)c2ccc(C)cc2)cc1 [Example 124, (2S,2′S) 2-N-Isobutyl-2-N-(4-methylbenzenesulfonyl)-6-N-[N′α-(4-methylbenzenesulfonyl)-S-4-nitrophenylalanyl]-2,6-diaminohexanol] | 7.92 | –
Cc1ccc(S(=O)(=O)N(CC(C)C)[C@@H](CCCCNC(=O)[C@H](CC(C)C)NS(=O)(=O)c2ccccc2)C(=O)O)cc1 [Example 22, Nα-Isobutyl-Nα-(4-methylbenzenesulfonyl)-Nε-(N′α-benzenesulfonyl-L-leucyl]-L-lysine] | 7.54 | –
CC(C)CN([C@H](CO)CCCCNC(=O)[C@H](Cc1c[nH]c2ccccc12)NC(=O)C(C)(C)C)S(=O)(=O)c1ccc(N)cc1 [Example 169, (2S,2′S) 2-N-(4-Aminobenzenesulfonyl)-2-N-isobutyl-6-N-(N′α-pivaloyl-S-tryptophanyl)-2,6-diaminohexanol] | 8.92 | –
Cc1ccc(S(=O)(=O)N[C@@H](Cc2c[nH]c3ccccc23)C(=O)NCCCC[C@@H](C(=O)O)N(CC(C)C)S(=O)(=O)c2ccc(C)cc2)cc1 [Example 2, Nα-Isobutyl-Nα-(4-methylbenzenesulfonyl)-Nε-[N′α-(4-methylbenzenesulfonyl)-L-tryptophanyl]-L-lysine] | 9.29 | –
Cc1ccc(S(=O)(=O)N(CC(C)C)[C@@H](CCCCNC(=O)[C@@H]2C[C@@H](O)CN2S(=O)(=O)c2ccccc2)C(=O)O)cc1 (relative stereo) [Example 17, Nα-Isobutyl-Nα-(4-methylbenzenesulfonyl)-Nε-[N′α-(benzenesulfonyl)-4-trans-hydroxy-L-prolyl]-L-lysine] | – | pKi (Anti-protease activity, read-out: Ki): 7.26
COc1ccc(S(=O)(=O)N(CC(C)C)[C@H](CO)CCCCNC(=O)[C@H](Cc2c[nH]c3ccccc23)NC(=O)OC(C)(C)C)cc1 [Example 147, (2S,2′S) 2-N-Isobutyl-2-N-(4-methoxybenzenesulfonyl)-6-N-(N′α-tert-butoxycarbonyl-S-tryptophanyl)-2,6-diaminohexanol] | 7.80 | –
Cc1ccc(S(=O)(=O)N(CC(C)C)[C@@H](CCCCNC(=O)CNc2ccccc2)C(=O)O)cc1 [Example 105, Nα-Isobutyl-Nα-(4-methylbenzenesulfonyl)-Nε-(N′α-phenylglycyl)-L-lysine] | – | pKi [1]: 8.11
Cc1ccc(S(=O)(=O)N[C@@H](Cc2ccccc2)C(=O)NCCCC[C@@H](C(=O)O)N(CC(C)C)S(=O)(=O)c2ccc(N)cc2)cc1 [Example 201, Nα-(4-Aminobenzenesulfonyl)-Nα-isobutyl-Nε-[N′α-(4-methylbenzenesulfonyl)-L-phenylalanyl]-L-lysine] | 8.39 | –
COc1ccc(CC(=O)N[C@@H](Cc2ccccc2)C(=O)NCCCC[C@@H](CO)N(CC(C)C)S(=O)(=O)c2ccc(C)cc2)cc1 [Example 162, (2S,2′S) 2-N-Isobutyl-2-N-(4-methylbenzenesulfonyl)-6-N-[N′α-(4-methoxyphenylacetyl)-S-phenylalanyl]-2,6-diaminohexanol] | 8.92 | –
COC(=O)[C@H](CCCCNC(=O)[C@H](Cc1c[nH]c2ccccc12)NC(=O)OC(C)(C)C)N(CC1CCCC1)S(=O)(=O)c1ccc(OC)cc1 [Example 150, Nα-Cyclopentylmethyl-Nα-(4-methoxybenzenesulfonyl)-Nε-(N′α-tert-butoxycarbonyl-L-tryptophanyl)-L-lysine Methyl Ester] | < 6.52 | –
Cc1ccc(S(=O)(=O)N(CC(C)C)[C@@H](CCCCNC(=O)[C@H](Cc2ccccc2)NS(=O)(=O)c2cccs2)C(=O)O)cc1 [Example 24, Nα-Isobutyl-Nα-(4-methylbenzenesulfonyl)-Nε-[N′α-(2-thiophenesulfonyl)-L-phenylalanyl]-L-lysine] | 9.30 | –
Cc1ccc(S(=O)(=O)N[C@@H](Cc2ccccc2)C(=O)NCCCC[C@H](C(=O)O)N(CC(C)C)S(=O)(=O)c2ccc(C)cc2)cc1 [Example 67, Nα-Isobutyl-Nα-(4-methylbenzenesulfonyl)-Nε-[N′α-(4-methylbenzenesulfonyl)-L-phenylalanyl]-D-lysine] | < 6.52 | –
Cc1ccc(S(=O)(=O)NCC(=O)NCCCC[C@@H](C(=O)O)N(CC(C)C)S(=O)(=O)c2ccc(C)cc2)cc1 [Example 21, Nα-Isobutyl-Nα-(4-methylbenzenesulfonyl)-Nε-[N′α-(4-methylbenzenesulfonyl)-glycyl]-L-lysine] | 7.68 | –
CC(=O)N[C@@H](Cc1c[nH]c2ccccc12)C(=O)NCCCC[C@@H](C(=O)O)N(CC(C)C)S(=O)(=O)c1ccc(C)cc1 [Example 99, Nα-Isobutyl-Nα-(4-methylbenzenesulfonyl)-Nε-(N′α-acetyl-L-tryptophanyl)-L-lysine] | 9.36 | –
CC(C)CN([C@H](CO)CCCCNC(=O)[C@H](Cc1ccccc1)NS(=O)(=O)c1ccc([N+](=O)[O-])cc1)S(=O)(=O)c1ccc(N)cc1 [Example 194, (2S,2′S) 2-N-(4-Aminobenzenesulfonyl)-2-N-isobutyl-6-N-[N′α-(4-nitrobenzenesulfonyl)-S-phenylalanyl]-2,6-diaminohexanol] | 7.07 | –
CC(=O)Nc1ccc(S(=O)(=O)N[C@@H](Cc2ccccc2)C(=O)NCCCC[C@@H](C(=O)O)N(CC(C)C)S(=O)(=O)c2ccc(C)cc2)cc1 [Example 3, Nα-Isobutyl-Nα-(4-methylbenzenesulfonyl)-Nε-[N′α-(4-acetamidobenzenesulfonyl)-L-phenylalanyl]-L-lysine] | 9.01 | –
Cc1ccc(S(=O)(=O)N[C@@H](Cc2ccccc2)C(=O)NCCCC[C@@H](CO)N(CC(C)C)S(=O)(=O)c2ccc(C)cc2)cc1 [Example 96, (2S,2′S) 2-N-Isobutyl-2-N-(4-methylbenzenesulfonyl)-6-N-[N′α-(4-methylbenzenesulfonyl)-S-phenylalanyl]-2,6-diaminohexanol] | 7.80 | –
Cc1ccc(S(=O)(=O)N(CC(C)C)[C@@H](CCCCNC(=O)CN(Cc2ccccc2)c2ccccc2)C(=O)O)cc1 [Example 114, Nα-Isobutyl-Nα-(4-methylbenzenesulfonyl)-Nε-(N′α-benzyl-N′α-phenylglycyl)-L-lysine] | – | pKi [1]: 9.03
CC(C)CN([C@H](CO)CCCCNC(=O)[C@H](Cc1ccccc1)NS(=O)(=O)c1ccc(N)cc1)S(=O)(=O)c1ccc(N)cc1 [Example 195, (2S,2′S) 2-N-(4-Aminobenzenesulfonyl)-2-N-isobutyl-6-N-[N′α-(4-aminobenzenesulfonyl)-S-phenylalanyl]-2,6-diaminohexanol] | 7.70 | –
Cc1ccc(S(=O)(=O)N(CC(C)C)[C@@H](CCCCNC(=O)[C@H](Cc2ccccc2)NS(=O)(=O)c2ccc(F)cc2)C(=O)O)cc1 [Example 18, Nα-Isobutyl-Nα-(4-methylbenzenesulfonyl)-Nε-[N′α-(4-fluorobenzenesulfonyl)-L-phenylalanyl]-L-lysine] | 8.08 | –
Cc1ccc(S(=O)(=O)N[C@@H](CCCCN)C(=O)NCCCC[C@@H](C(=O)O)N(CC(C)C)S(=O)(=O)c2ccc(C)cc2)cc1 [Example 39, Nα-Isobutyl-Nα-(4-methylbenzenesulfonyl)-Nε-[N′α-(4-methylbenzenesulfonyl)-L-lysyl]-L-lysine] | < 6.52 | –
Cc1ccc(S(=O)(=O)N(CC(C)C)[C@@H](CCCCNC(=O)[C@H](Cc2ccccc2)NC(=O)C(C)(C)C)C(=O)O)cc1 [Example 52, Nα-Isobutyl-Nα-(4-methylbenzenesulfonyl)-Nε-(N′α-pivaloyl-L-phenylalanyl)-L-lysine] | 9.26 | –
Cc1ccc(S(=O)(=O)N[C@@H](Cc2ccccc2)C(=O)NCCCC[C@@H](C(=O)O)N(CC(C)C)S(=O)(=O)c2ccccc2)cc1 [Example 200, Nα-Benzenesulfonyl-Nα-isobutyl-Nε-[N′α-(4-methylbenzenesulfonyl)-L-phenylalanyl]-L-lysine] | 7.51 | –
Cc1ccc(S(=O)(=O)N[C@@H](Cc2c[nH]c3ccccc23)C(=S)NCCCC[C@@H](CO)N(CC(C)C)S(=O)(=O)c2ccc(C)cc2)cc1 [Example 102] | 7.29 | –
Cc1ccc(S(=O)(=O)N[C@@H](Cc2cccs2)C(=O)NCCCC[C@@H](C(=O)O)N(CC(C)C)S(=O)(=O)c2ccc(C)cc2)cc1 [Example 35, Nα-Isobutyl-Nα-(4-methylbenzenesulfonyl)-Nε-[N′α-(4-methylbenzenesulfonyl)-L-2-thiophenylalanyl]-L-lysine] | 7.68 | –
